Measured values published in patent US9102674B2, “Substituted naphthyridine and quinoline compounds as MAO inhibitors” (DART NEUROSCIENCE (CAYMAN) LTD., priority 2013, dated 2015).

Molecular target: T1, Human recombinant MAO-B (Homo sapiens, UniProt P27338)
T1 construct: host or cells: insect cells
T1 sequence (P27338 1-520): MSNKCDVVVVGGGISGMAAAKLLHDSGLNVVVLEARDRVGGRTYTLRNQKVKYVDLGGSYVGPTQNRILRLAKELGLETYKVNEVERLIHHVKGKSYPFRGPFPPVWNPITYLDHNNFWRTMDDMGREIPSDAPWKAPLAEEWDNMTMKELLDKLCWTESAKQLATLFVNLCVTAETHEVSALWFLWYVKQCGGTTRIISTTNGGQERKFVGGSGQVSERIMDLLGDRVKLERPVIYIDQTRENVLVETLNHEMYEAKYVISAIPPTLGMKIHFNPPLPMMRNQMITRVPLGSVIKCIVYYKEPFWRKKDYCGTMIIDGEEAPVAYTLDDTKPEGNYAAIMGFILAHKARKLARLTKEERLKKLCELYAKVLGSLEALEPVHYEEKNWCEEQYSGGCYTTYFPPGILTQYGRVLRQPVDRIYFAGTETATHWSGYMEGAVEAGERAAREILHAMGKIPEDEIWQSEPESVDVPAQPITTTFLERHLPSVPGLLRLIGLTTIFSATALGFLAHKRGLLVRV
Test: MAO-B enzymatic assay (fluorometric, kynuramine)
Type: biochemical
Conditions: human recombinant MAO-B expressed in insect cells; kynuramine substrate; values given as bins; read-out: MAO-B (pEC50) (converted)
Procedure: The MAO enzymatic assay was performed according to the fluorometric method described by Matsumoto and colleagues (Matsumoto et al., Clin. Biochem. 1985, 18, 126-129) with the following modifications. Human recombinant MAO-A and MAO-B expressed in insect cells were used. For both assays, test compound and/or vehicle were preincubated with purified enzyme in phosphate buffer pH 7.4 for 15 minutes at 37° C. The reaction was initiated by addition of […] kynuramine. Following a 60 minute incubation period, the reaction was terminated by the addition of 6 N NaOH. The amount of 4-hydroxyquinoline that formed was determined by spectrofluorimetrically at 325 nm/465 nm.
Results were converted to percent inhibition, and the EC50 (M) for each reaction was determined using the XLfit program from IDBS (ID Business Solutions Ltd., 2 Occam Court, Surrey Research Park, Guildford, Surrey, GU2 7QB UK). The EC50 represents the concentration of a compound where 50% of its maximal effect is observed. The pEC50 is defined as the negative logarithm of the EC50; a higher pEC50 value therefore corresponds to higher potency in the assay.
Representative compounds of the invention were evaluated in the MAO-B enzymatic assay. Typically, the compounds of the invention show MAO-B inhibitory properties at a concentration of 0.1 to 10 μM, typically at 5-100%.
As depicted in the following Table, these inhibitory properties were mirrored by pEC50 values ranging from 5 (meaning 10^−5 M or 10 μM) to greater than 7 (meaning less than 10^−7 M or 0.1 μM).

In the case of `CCOC(=O)c1cnc2cc(OCc3ccc(Cl)cc3)ccc2c1` [Example 1, Ethyl 7-[(4-chlorophenyl)methoxy]quinoline-3-carboxylate], the EC50 is reported as under 100 nM.

`CCOC(=O)c1cnc2cc(OCc3cccc(C(F)(F)F)c3)ccc2c1` [Example 5, Ethyl 7-((3-(trifluoromethyl)benzyl)oxy)quinoline-3-carboxylate] showed an EC50 of under 100 nM.

`CC(C)(O)c1cnc2cc(OCc3cc(F)cc(F)c3)ccc2c1` [Example 29, 2-(7-((3,5-Difluorobenzyl)oxy)quinolin-3-yl)propan-2-ol] was tested, and the EC50 was under 100 nM.

`CCOC(=O)c1cnc2cc(OCc3cc(F)cc(C(F)(F)F)c3)ccc2c1` [Example 13, Ethyl 7-((3-fluoro-5-(trifluoromethyl)benzyl)oxy)quinoline-3-carboxylate] showed an EC50 of under 100 nM.

For `CC(=O)c1cnc2cc(OCc3ccc(F)cc3)ccc2c1` [Example 42, 1-(7-((4-Fluorobenzyl)oxy)quinolin-3-yl)ethanone], the EC50 was under 100 nM.

With `CCOC(=O)c1cnc2cc(OCc3ccc(F)c(Cl)c3)ccc2c1` [Example 17, Ethyl 7-((3-chloro-4-fluorobenzyl)oxy)quinoline-3-carboxylate] the EC50 was under 100 nM.

For `COCc1cnc2cc(OCc3cccc(Cl)c3)ccc2c1` [Example 40, 7-((3-Chlorobenzyl)oxy)-3-(methoxymethyl)quinoline], the EC50 was under 100 nM.

With `CC(C)(C(N)=O)c1cnc2cc(OCc3cccc(Cl)c3)ccc2c1` [Example 61, 2-(7-((3-Chlorobenzyl)oxy)quinolin-3-yl)-2-methylpropanamide] the EC50 was under 100 nM.

Work on `NC(=O)Cc1cnc2cc(OCc3cccc(C(F)(F)F)n3)cnc2c1` [Example 81, 2-(7-((6-(Trifluoromethyl)pyridin-2-yl)methoxy)-1,5-naphthyridin-3-yl)acetamide] yielded an EC50 of 100 to 1000 nM.

`Cc1nc2cc(OCc3cccc(Cl)c3)ccc2cc1C(C)(C)O` [Example 32, 2-(7-((3-Chlorobenzyl)oxy)-2-methylquinolin-3-yl)propan-2-ol] showed an EC50 of under 100 nM.

In the case of `CC(C)(O)c1cnc2cc(OCCc3cccc(Cl)c3)ccc2c1` [Example 39, 2-(7-(3-Chlorophenethoxy)quinolin-3-yl)propan-2-ol], the EC50 is reported as 100 to 1000 nM.

Compound `CC(C)(O)c1cnc2cc(OCc3cc(F)c(F)c(F)c3)ccc2c1` [Example 30, 2-(7-((3,4,5-Trifluorobenzyl)oxy)quinolin-3-yl)propan-2-ol] has an EC50 of under 100 nM.

Work on `OCc1cnc2cc(OCc3ccc(F)c(F)c3)cnc2c1` [Example 73, (7-((3,4-Difluorobenzyl)oxy)-1,5-naphthyridin-3-yl)methanol] yielded an EC50 of under 100 nM.

In the case of `C[C@@H](O)c1cnc2cc(OCc3ccc(F)cc3)ccc2c1` [Example 44, (R)-1-(7-((4-Fluorobenzyl)oxy)quinolin-3-yl)ethanol], the EC50 is reported as under 100 nM.

`CNCCNC(=O)c1cnc2cc(OCc3cccc(Cl)c3)ccc2c1` [Example 48, 7-((3-Chlorobenzyl)oxy)-N-(2-(methylamino)ethyl)quinoline-3-carboxamide] was tested, and the EC50 was 100 to 1000 nM.

In the case of `Cc1nc2cc(OCc3ccc(F)c(Cl)c3)ccc2cc1C(C)(C)O` [Example 33, 2-(7-((3-Chloro-4-fluorobenzyl)oxy)-2-methylquinolin-3-yl)propan-2-ol], the EC50 is reported as under 100 nM.

For `NC(=O)c1cnc2cc(OCc3ccc(F)c(Cl)c3)cnc2c1` [Example 71, 7-[(3-Chloro-4-fluorophenyl)methoxy]-1,5-naphthyridine-3-carboxamide], the EC50 was under 100 nM.

`CCOC(=O)c1cnc2cc(OCc3cc(F)cc(F)c3)ccc2c1` [Example 15, Ethyl 7-((3,5-difluorobenzyl)oxy)quinoline-3-carboxylate] gave an EC50 of under 100 nM.

In the case of `CC(C)(O)c1cnc2cc(OCCc3cccc(F)c3)ccc2c1` [Example 38, 2-(7-(3-Fluorophenethoxy)quinolin-3-yl)propan-2-ol], the EC50 is reported as 100 to 1000 nM.

Compound `CCOC(=O)c1cnc2cc(OCc3cccc(F)c3)ccc2c1` [Example 4, Ethyl 7-[(3-fluorophenyl)methoxy]quinoline-3-carboxylate] has an EC50 of under 100 nM.
